According to ChEMBL document CHEMBL1137783 (J Med Chem, 2009):

target: Voltage-gated inwardly rectifying potassium channel KCNH2 (Homo sapiens, UniProt Q12809); assay: (§1) Inhibition of human ERG channel; details: not given
Sequence (Q12809 whole entry): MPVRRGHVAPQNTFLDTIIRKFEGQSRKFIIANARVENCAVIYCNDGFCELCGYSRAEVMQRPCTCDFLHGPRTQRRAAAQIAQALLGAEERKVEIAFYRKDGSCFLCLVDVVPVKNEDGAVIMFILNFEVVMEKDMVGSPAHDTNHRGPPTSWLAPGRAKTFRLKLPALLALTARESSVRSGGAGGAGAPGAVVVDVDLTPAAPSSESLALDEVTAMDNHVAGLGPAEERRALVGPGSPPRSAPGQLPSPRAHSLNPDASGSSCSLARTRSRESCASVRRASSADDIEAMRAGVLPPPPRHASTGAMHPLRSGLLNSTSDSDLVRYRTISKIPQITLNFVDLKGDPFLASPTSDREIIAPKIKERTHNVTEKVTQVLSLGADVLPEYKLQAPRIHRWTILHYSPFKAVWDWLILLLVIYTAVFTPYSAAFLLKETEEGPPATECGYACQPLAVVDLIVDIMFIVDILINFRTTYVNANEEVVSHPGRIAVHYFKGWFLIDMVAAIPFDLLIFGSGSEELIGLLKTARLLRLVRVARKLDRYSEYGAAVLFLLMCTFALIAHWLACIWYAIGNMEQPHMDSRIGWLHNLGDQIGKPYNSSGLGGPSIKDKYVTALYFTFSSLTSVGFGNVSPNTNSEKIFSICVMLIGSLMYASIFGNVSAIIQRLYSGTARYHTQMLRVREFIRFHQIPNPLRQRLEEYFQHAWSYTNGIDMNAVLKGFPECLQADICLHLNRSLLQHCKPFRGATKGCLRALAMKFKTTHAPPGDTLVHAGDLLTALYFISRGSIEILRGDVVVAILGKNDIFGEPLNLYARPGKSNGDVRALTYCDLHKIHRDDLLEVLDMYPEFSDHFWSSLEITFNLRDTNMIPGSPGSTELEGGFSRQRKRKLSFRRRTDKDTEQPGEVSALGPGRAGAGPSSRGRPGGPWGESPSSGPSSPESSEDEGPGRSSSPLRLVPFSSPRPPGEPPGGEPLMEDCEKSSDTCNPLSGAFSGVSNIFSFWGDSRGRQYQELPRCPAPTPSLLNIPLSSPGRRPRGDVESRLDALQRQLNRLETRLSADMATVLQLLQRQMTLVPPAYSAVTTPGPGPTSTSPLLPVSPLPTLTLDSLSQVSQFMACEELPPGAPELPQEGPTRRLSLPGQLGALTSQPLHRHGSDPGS

Row | SMILES | IC50 [µM] | Ki [µM]
1 | C[N+]1([O-])CCN(C2=Nc3cc(Cl)ccc3Nc3ccccc32)CC1 | 133 | 
2 | CN1Cc2cncn2Cc2ccc(C#N)c(c2)Oc2ccc3c(c2)[C@@H](CC3)N2CC[C@@H]1C2=O | 2.6 | 
3 | Fc1ccc2[nH]c(-c3ccccc3)c([C@@H]3CNCC[C@H]3F)c2c1 |  | 7
4 | c1ccc(-c2[nH]c3ccccc3c2C2CC3CCC(C2)N3)cc1 (centres undefined) |  | 0.018
5 | CC(=O)Nc1cccc(N2CCN(CCCCNS(=O)(=O)CC3CCCCC3)CC2)c1 [NALUZOTAN] | 3.8 | 
6 | Cc1cc2c(s1)Nc1ccccc1N=C2N1CCN(C)CC1 [OLANZAPINE] | 0.231 | 

same assay, conditions: human

Row | SMILES | pIC50
7 | C[N+]1([O-])CCN(C2=Nc3cc(Cl)ccc3Nc3ccccc32)CC1 | 3.875
8 | Cc1cc2c(s1)Nc1ccccc1N=C2N1CCN(C)CC1 [OLANZAPINE] | 6.636

target: T1, hERG (KCNH2) (Homo sapiens, UniProt Q12809); assay: as §1; details: human
T1 sequence (Q12809 whole entry): as above

Row | SMILES | Ki [µM]
9 | c1ccc(-c2[nH]c3ccccc3c2C2CCNCC2)cc1 | 5.7
10 | Fc1ccc(-c2[nH]c3cc(F)ccc3c2C2CCCNC2)cc1 (centres undefined) | 1.3
11 | CN1CCCC(c2c(-c3ccccc3)[nH]c3ccccc23)C1 (centres undefined) | 9.6
12 | Fc1ccc2c([C@@H]3CNCC[C@H]3F)c(-c3cccc4ccccc34)[nH]c2c1 | 0.11
13 | Fc1ccc2c([C@@H]3CNCC[C@H]3F)c(-c3ccc4ccccc4c3)[nH]c2c1 | 0.5
14 | Fc1ccc2c([C@@H]3CNCC[C@H]3F)c(-c3ccsc3)[nH]c2c1 | 1.5
15 | Fc1ccc(-c2[nH]c3cc(F)ccc3c2[C@@H]2CNCC[C@H]2F)cc1 | 1.6

target: T1, hERG (KCNH2); assay: Inhibition of human ERG channel at 300 uM; details: not given

Row | SMILES | inhibition at 300 µM [%]
16 | Cc1nnc(C(C)C)n1C1CC2CCC(C1)N2CC[C@H](NC(=O)C1CCC1)c1ccccc1 (some centres undefined) | 30
17 | Cc1nnc(C(C)C)n1C1CC2CCC(C1)N2CC[C@H](NC(=O)C1CCCC1)c1ccccc1 (some centres undefined) | 18
18 | Cc1nnc(C(C)C)n1C1CC2CCC(C1)N2CC[C@H](NC(=O)CCC(F)(F)F)c1ccccc1 (some centres undefined) | 14

target: T1, hERG (KCNH2); assay: Inhibition of human ERG channel at 3 uM; details: not given

Row | SMILES | inhibition at 3 µM [%]
19 | CC(C)(CO)NC(=O)[C@H]1CC[C@H](c2nc(-c3cccc(C(F)(F)F)c3)c[nH]2)CC1 | 6
